# Measured values from patent US20050049240A1, “Tetrahydroisochinolines, their production and the use thereof as analgesics” (Bayer HealthCare AG, priority 2001, published 2005).
# Target: T1, human neurotensin-2 (NT-2) receptor (Homo sapiens, UniProt O95665)
# T1 construct: expressed in transfected cells
# Experiment: NT2 antagonism assay (intracellular calcium release in CHO or HEK 293 cells recombinantly expressing the receptor)
# Assay type: cell-based
# Details: functional in vitro assay; block of agonist (e.g. SR48692)-dependent intracellular calcium release; recombinant human NT-2 receptor
# From the text: The activation of the human neurotensin-2 (NT-2) receptor by an agonist, for example SR48692, 2-{[1-(7-chloroquinolin-4-yl)-5-(2,6-dimethoxyphenyl)pyrazol-3-yl]carbonylamino}tricyclo[3.3.3.1 ^3,7]decane-2-carboxylic acid, leads, via stimulation of phospholipase C, to the release of calcium ions from intracellular stores. Antagonists block the activation of the receptor by the agonist and therefore also the agonist-dependent stimulation of phospholipase C and the intracellular calcium release initiated thereby.
# A functional in vitro assay may be carried out with stable cell lines, for example CHO or HEK 293, which express the human NT-2 receptor recombinantly. The activity of the receptor is determined via measurement of the intracellular calcium release coupled thereto (in microtiter plates having 96, 384 and 1536 wells/plate). The concentration-dependent action of the NT-2 ligands tested on the receptor activity may be reported as IC50.
# T1 sequence (O95665 whole entry): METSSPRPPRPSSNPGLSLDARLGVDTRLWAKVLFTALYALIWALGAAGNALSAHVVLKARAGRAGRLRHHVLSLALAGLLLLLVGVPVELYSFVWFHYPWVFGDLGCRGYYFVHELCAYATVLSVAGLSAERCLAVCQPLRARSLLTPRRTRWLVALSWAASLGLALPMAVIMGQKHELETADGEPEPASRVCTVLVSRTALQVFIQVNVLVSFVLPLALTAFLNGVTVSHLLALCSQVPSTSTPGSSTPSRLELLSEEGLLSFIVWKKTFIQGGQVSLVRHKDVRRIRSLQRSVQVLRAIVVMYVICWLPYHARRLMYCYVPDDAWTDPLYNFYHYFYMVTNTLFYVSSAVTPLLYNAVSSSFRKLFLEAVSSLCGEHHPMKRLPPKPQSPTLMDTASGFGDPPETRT
compound,measurement,value
"NC(=O)COc1ccccc1C1C(C(=O)NCc2cccnc2)c2ccccc2C(=O)N1CCC1=CCCCC1 (single isomer, unassigned) [enantiomer B of example 1, 3,4-trans-3-[2-(2-Carbamoylmethoxy)phenyl]-2-[2-(1-cyclohexen-1-yl)ethyl]-1-oxo-N-(3-pyridinylmethyl)-1,2,3,4-tetrahydro-4-isoquinolinecarboxamide]",IC50,< 200 nM
